# Like-named read-outs stand apart in the source and are kept apart here. Where a SMILES comes first, the peptide text is derived from it. [ ]: non-standard residue; d: D form. N(tridecyl)Gly = CCCCCCCCCCCCCNCC(=O)O; Gly(N-2-aminoethyl) = NCCNCC(=O)O; Gly(N-cHex) = O=C(O)CNC1CCCCC1; Nleu = CC(C)CNCC(=O)O; Nlys = NCCCCNCC(=O)O
# Columns and labels:
# C. neoformans = assay type: cell-based, Cryptococcus neoformans; settings: 72 h
# [1] = Mammalian cytotoxicity, MTT, HepG2; assay type: cell-based, human; settings: human, HepG2 hepatocellular carcinoma cells
# Method in brief: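 HepG2 cells (1×10^5 cells/mL, phenol-red-free DMEM, 10% FBS) were exposed to 2-fold dilutions of compound at 1.56–200 μg/mL final, in triplicate, for 72 h at 37 °C, 5% CO2. MTT was added for 3 h and, after DMSO solubilization, absorbance was read at 570 nm. TD50 is the concentration giving a 50% growth reduction versus the water vehicle, reported as the mean of biological replicates ± SD.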
SMILES,C. neoformans MIC (C. neoformans) [µg/mL],CC50 at 72 h [1] [µg/mL],MIC C. neoformans (C. neoformans) [µg/mL],"CC50 at 72 h ([1]; Example 1, 72 hours, MTT, read-out: TD50 HepG2) [µg/mL]"
CCCCCCCCCCCCCNCC(=O)N(CC(=O)N(CCCCN)CC(=O)N(CCN)CC(=O)N(CC(N)=O)CC(C)C)CC(C)C [Compound 9] (H-[N(tridecyl)Gly][Nleu][Nlys][Gly(N-2-aminoethyl)][Nleu]-NH2),3.13,167 ± 75,,
"CCCCCCCCCCCCCNCC(=O)N(CC(=O)N(CCCCN)CC(=O)N(CCN)CC(=O)N(CC(N)=O)C1CCCCC1)C1CCCCC1 [RMG8-8, Ntri-Ncha-Nlys-Nae-Ncha] (H-[N(tridecyl)Gly][Gly(N-cHex)][Nlys][Gly(N-2-aminoethyl)][Gly(N-cHex)]-NH2)",,,1.6,189 ± 43
